# From patent US20050032863A1, “Method of treating or preventing central nervous system disorders with compounds having selectivity for the alpha 3 subunit of the benzodiazepine receptor” (priority 2003, published 2005)
# Several values for one entry are separate records, joined by “and”; a condition that tells them apart may be missing. Identical values can stand only once.
# Assays:
# [1] = test system: extracellular 5-HT, HIAA and dopamine in the striatum of rats; experiment: Microdialysis in the striatum of rats (Example 3); assay type: in vivo, rat; conditions: 30 mg/kg i.p.
# Method: The day before the experiment, male rats were anaesthetised with chloral hydrate (3.6%, 1 ml/100 g i.p.) and placed in a stereotaxic frame to implant a microdialysis guide cannula (CMA/12, Carnegie Medicine, Sweden). Scalp was incised in the median anterior-posterior direction between lambda and bregma and a small hole was drilled into the skull. The stereotaxic coordinates were AP=+1.0 mm, L=−3.0 mm from bregma and 1.5 mm from the skull surface for the striatum according to the atlas of Paxinos and Watson, (1986) (1). Dental cement (Sinfony(2)) was used to fix the guide cannula and anchor screws to the cranium. During the surgery rectal temperature was maintained at 37° C. using a heating blanket.
# The day before the experiment the microdialysis probe (CMA/12, membrane length 4 mm, Carnegie Medicin, Sweden) was inserted into the striatum through the guide cannula. On the day of experiment the probe was perfused with Ringer solution (148 mM NaCl, 4 mM KCl, 2,4 mM CaCl2, pH=6,0). The flow rate (1 μl/min) allowed to collect 20 μl samples every 20 minutes into microvials. Microvials were stored in a fraction collector (CMA/170) at a temperature of 8° C. until analysed. Using a swivel joint the perfusion arrangement allowed the animal to move freely within a hemispherical bowl. After an adjusting time of one hour 3 consecutive 20-min-fractions were collected to establish a stable basal level of neurotransmitter release.
# Thereafter 30 mg/kg E131-00139 or an equivalent volume of 0.5% tylose/PEG300 9:1, respectively, was administered. Then collecting samples was continued for at least 220 minutes.
# Dialysates were directly analysed by reverse-phase high-performance liquid chromatography with electrochemical detection (HPLC-EC). The samples were separated by a ZORBAX SB-Aq 2.1 mm ID×100 mm column (Agilent Technologies). […]
# Therefore data of each animal were expressed as percentages. Data from dialysates before administering the substances were averaged, and the mean set as 100%; all individual values were calculated accordingly.
# [2] = target: T1, recombinant rat α1β2γ2 GABAA receptors (Rattus norvegicus, UniProt P62813); experiment: Whole-cell patch-clamp, modulation of GABA (EC20)-induced currents in transfected HEK 293 cells, α1β2γ2; assay type: cell-based
# T1 construct: expressed in transfected cells; host or cells: HEK 293
# T1 sequence (P62813 28-455): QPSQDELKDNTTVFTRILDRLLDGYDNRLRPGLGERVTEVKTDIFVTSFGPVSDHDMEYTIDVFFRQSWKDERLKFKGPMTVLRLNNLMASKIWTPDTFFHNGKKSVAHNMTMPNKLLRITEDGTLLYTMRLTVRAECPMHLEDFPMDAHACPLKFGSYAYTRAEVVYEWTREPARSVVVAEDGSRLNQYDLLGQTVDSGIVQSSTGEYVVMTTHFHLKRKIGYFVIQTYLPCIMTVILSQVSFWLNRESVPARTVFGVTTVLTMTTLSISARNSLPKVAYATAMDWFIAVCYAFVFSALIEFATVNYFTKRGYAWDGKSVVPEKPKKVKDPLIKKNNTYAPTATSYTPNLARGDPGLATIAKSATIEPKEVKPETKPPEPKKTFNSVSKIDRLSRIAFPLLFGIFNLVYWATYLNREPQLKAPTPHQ
# Method: For electrophysiological recording HEK-293 cells were passaged and replated on 12-mm glass coverslips located in 9.6-cm plastic dishes filled with 10 ml of Minimum Essential Medium (MEM, Gibco) supplemented with 158 mg/l sodium bicarbonate, 2 mM glutamine (Gibco), 100 U/ml penicillin-streptomycin (Gibco), and 10% foetal calf serum (Gibco). Cultures were maintained at 37° C. in a humidified […]/5% CO2 atmosphere for 2-3 days.
# Transfection with recombinant rat GABAA receptors was carried out as described in detail (Korpi and Lüddens, 1993, Lüddens and Korpi, 1995b). Briefly, HEK 293 cells were transfected in triple combinations using the phosphate precipitation method with rat GABAA receptor cDNAs in eukaryotic expression vectors (Pritchett, 1990) for the α, β and γ subunits. For optimal receptor expression, final concentrations (μg vector DNA per 9.6 cm tissue culture plate) were: α1, 2; α2 4.8; α3, 1.2; α4, 10; α5, 0.8; β2, 0.4; and γ2S, 0.3. The γ2S variant is abbreviated γ2 in the remainder of the text. To identify transfected cells all subunit combinations were co-transfected with 1 μg per plate of pNI-EGFP.
# Two days after transfection single coverslips containing HEK 293 cells were placed in a recording chamber mounted on the movable stage of a fluorescence microscope (Olympus IX70) and perfused with a defined saline solution containing (in mM): 130 NaCl, 5.4 KCl, 2 CaCl2, 2 MgSO4, 10 glucose, 5 sucrose, and 10 HEPES (free acid), pH adjusted to 7.35 with about 35 mM NaOH. Transfected cells were identified by their green fluorescence due to the expression of the pNI-EGFP vector and ligand-mediated membrane currents of these cells were studied in the whole-cell configuration of the patch-clamp technique (Hamil et al., 1981). Patch-clamp pipettes were pulled from hard borosilicate capillary glass (0.5 mm ID, 1.5 mm OD, Vitrex, Science Products GmbH, Hofheim, Germany) using a horizontal puller (Sutter Instruments, CA, Model P-97) in a multi-stage process.
# Seal resistances >1 GΩ were routinely obtained by applying gentle suction to the pipettes. Membrane rupture was monitored electrically as an increase in capacity. Pipette capacitance, membrane capacitance, and series resistance were electronically compensated to achieve minimal capacitative transients. A series resistance compensation of >60% was regularly used.
# In all cells recorded the presence of the γ2 subunit in the heteropentamere was monitored by the application of 1 μM zolpidem plus the EC20 of GABA before testing the experimental drugs.
# Responses of the cells were recorded by a patch-clamp amplifier (EPC-8, HEKA-Electronic, Lambrecht, Germany) in conjunction with a standard personal computer and the pClamp 8.1 software package (Axon Instruments, Foster City, Calif.). The standard holding-potential for the cells was −40 mV. Whole cell currents were low-pass filtered by an eight-pole Bessel filter at 5 or 3 kHz before being digitised by a Digidata 1322A interface (Axon Instruments, Foster City, Calif.) and recorded by the computer at a sampling rate of at least […].
# Efficacy, potency, and GABAA receptor a subunit specificity of the new compound ELB139 was tested with the whole cell configuration of the patch-clamp technique by applying increasing drug concentration together with GABA of the approximate EC20 on green fluorescing cells. BZ binding site specificity of the new compound was tested on the same cells in an identical experimental setting with additionally applying 10 μM Ro15-1788.
# serotonine transporters = experiment: Uptake of serotonine in a synaptosomal preparation; assay type: biochemical
compound,measurement,setting,value
"O=C1N=C(N2CCCCC2)CN1c1ccc(Cl)cc1 [ELB139, 1-(4-chlorophenyl)-4-piperidinoimidazolin-2-one]",HIAA concentration in the striatum,[1],without influencing
same,dopamine concentration in the striatum,[1],did also not influence
same,5-HT concentration in the striatum,[1]; vs tylose vehicle,significantly and unexpectedly increased
same,concentration at which positive current modulation was observable,[2]; α1-containing receptors,0.3 µM
same,maximal positive modulation of GABA-induced current,"[2]; α1-containing receptors, maximum at 30 μM (ELB139), at 1 μM (diazepam)",1.6±0.08 fold and 1.6 fold
same,concentration at which significant agonistic effects were noticeable,[2]; α1β2γ2,about 1 μM
same,EC50,"[2]; α1β2γ2, applied with approximate GABA EC20, read-out: EC50 (ELB139)",3.8 µM
same,effect of 10 μM Ro15-1788 on the current enhancement by the compound,"[2]; α1β2γ2, co-applied 10 μM Ro15-1788 (flumazenil)",completely abolished
same,Potentiation* (ELB139),"[2]; α1β2γ2, with GABA EC20, graphically determined",1.6 ± 0.08
same,uptake of serotonine,serotonine transporters,no effect
